What all share (format): cell-based
The subject of experiment [1] is Rb. In words: Western blot of Rb levels in SW480 cells. The note with it: SW480, 6.3 μM, 24, 48, and 72 h, relative to control. As for the experimental part:
(§1) SW480 cells were seeded in 6-well plates and treated as described in the previous subsection. After 24, 48 or 72 h of incubation, adherent cells were washed twice with ice-cold DPBS and incubated with lysis buffer (0.2% Triton X-100, 0.5 mM sodium deoxycholate, 1 mM Na-EDTA, 1 mM DTT, 20 mM Tris–HCl (pH 7.5), 0.5% phosphatases inhibitor cocktail, and 1% proteases inhibitor cocktail) for 30 min at 4 °C. The cells were scraped, sonicated, and centrifuged at 120 00 × g (20 min at 4 °C). […] The gels were then transferred to PVDF membranes, which were blocked with 5% skim milk in PBS-Tween-20 (0.1%) for 1 h at room temperature. Subsequently, the membranes were incubated with the primary antibodies for 30 mi at room temperature (actin) or overnight at 4 °C (CDK4, CDK6, cyclin A, Rb and SOD2/MnSOD). After incubation, the membranes were washed with PBS-Tween-20 (0.1%) and incubated with anti-mouse secondary antibody (40 min) or anti-rabbit secondary antibody (1 h) at room temperature. Finally, the membranes were washed with PBS-Tween-20 (0.1%) and treated with the Immobilon Western Chemiluminescent HRP Substrate Kit, and autoradiography was performed using an FPM-100A film processor (Fujifilm, Tokyo, Japan). western blot results were obtained from three independent experiments, except for cyclin A at 24 h (n = 2), Rb protein at 24 and 72 h (n = 2), and SOD2 (MnSOD) at 72 h (n = 2).

For experiment [2], the system named is SW480 cells. Description: Apoptosis assay (annexin V-FITC/PI, flow cytometry). As to conditions: SW480, 6.3 μM, 24, 48 or 72 h. As for the experimental part: Our objective was to assess whether the anticancer activity observed in SW480 cells treated with compound 17 results from the activation of apoptosis.
SW480 cells were seeded at a density of 1.68 × 10^5 cells per well in 6-well plates and incubated at 37 °C. […] Adherent cells were harvested by trypsinization, and they were washed with DPBS and collected by centrifugation along with the cells in suspension. Cells were resuspended in 3 μL annexin V FITC and 95 μL binding buffer containing 140 mM NaCl, 2.5 mM CaCl2, and 10 mM HEPES/NaOH (pH 7.4). The cell suspension was then incubated in the dark, at room temperature for 30 min. The cells were then stained with 510 μL of a mixture containing 500 μL of binding buffer and 10 μL of PI solution (1 mg mL^−1). Finally, data from 1 × 10^4 cells were collected through fluorescence activated cell sorting (FACS) analysis using a Gallios flow cytometer (Beckman Coulter, Brea, CA, USA) at 488 nm.
(In general: A flow cytometer gives signals particle by particle.)

Experiment [3] concerns cyclin A. Description: Western blot of cyclin A levels in SW480 cells. The note with it: SW480, 6.3 μM, relative to control. As for the experimental part:
as §1

For experiment [4], the system named is CDK6. Description: Western blot of CDK6 levels in SW480 cells. As to conditions: SW480, 6.3 μM, relative to control. As for the experimental part:
as §1
In general terms: Immunoblotting shows a protein as a band on a membrane.

Experiment [5] relates to HCT116 cells. In words: MTT cell viability assay in HCT116 cells. As for the experimental part:
The MTT assay was used to assess the effect of the compounds on cell viability. […] Subsequently, the culture medium was switched with a new medium containing DMSO (control) or the compound at a specified concentration. […] The plates were then incubated for 1 h at 37 °C. After this time, the supernatant was aspirated, and the formazan crystals were dissolved in 100 μL of DMSO in each well. Relative cell viability was calculated by measuring absorbance at 570 nm using a Benchmark Plus Microplate Reader (Bio-Rad Laboratories, Hercules, CA, USA).
(Formazan colour is commonly taken as a measure of viable cells.)

Experiment [6] concerns SW480 cells. Description: Cell cycle assay (PI, flow cytometry). As for the experimental part: To validate this hypothesis, compound 17 was administered at 6.3 μM to SW480 cells and incubated for 24, 48, and 72 h. Following each incubation period, the cells were fixed and permeabilized with 70% cold ethanol and stained with PI before flow cytometry analysis. At 24 h, compound 17 caused cell cycle arrest at the G0/G1 phase, as evidenced by a significant increase in the percentage of SW480 cells, from 54% in the control group to 66% in the treated group (Fig. 6). […] At 72 h, compound 17 had no impact on the cell cycle of SW480 cells, as observed in Fig. 6.
SW480 cells were seeded, treated, incubated, and collected, as described for the apoptosis assay. After centrifugation, the cells were resuspended in 500 μL DPBS, added dropwise to 4.5 mL of 70% (v/v) cold ethanol, and stored at −20 °C for at least 4 h. Each cell suspension was centrifuged, washed with cold DPBS, and resuspended in 350 μL DPBS and 10 μL RNase (10 mg mL^−1). After 1 h of incubation at 37 °C with agitation, the cells were stained with 20 μL of PI solution (1 mg mL^−1). A Gallios flow cytometer (Beckman Coulter, Brea, CA, USA) at a wavelength of 488 nm was used for FACS analysis. Data from 1 × 10^4 cells were collected, and a multicycle software (Phoenix Flow Systems, San Diego, CA, USA) was used for cell cycle analysis.

For experiment [7], the system named is A375 cells. In words: MTT cell viability assay in A375 cells. The note with it: Homo sapiens, A-375, 72 h, read-out: IC50 A375. As for the experimental part:
The MTT assay was used to assess the effect of the compounds on cell viability. For this purpose, A375 (1500 cells per well), BJ (10 000 cells per well), Caco-2 (4000 cells per well), HCT116 (3000 cells per well), Mia Paca-2 (2000 cells per well), SW480 (6000 cells per well), and SW620 (8000 cells per well) cells were seeded in 96-well plates and incubated for 24 h. Subsequently, the culture medium was switched with a new medium containing DMSO (control) or the compound at a specified concentration. Following a 72 h incubation period, the supernatant was aspirated, and 100 μL of a mixture (1 : 1) of filtered MTT solution (1 mg per mL PBS) and FBS-free medium was added. The plates were then incubated for 1 h at 37 °C. After this time, the supernatant was aspirated, and the formazan crystals were dissolved in 100 μL of DMSO in each well. Relative cell viability was calculated by measuring absorbance at 570 nm using a Benchmark Plus Microplate Reader (Bio-Rad Laboratories, Hercules, CA, USA). Results are presented as the mean ± standard deviation (SD) of IC50 values, determined by nonlinear regression analysis of dose–response curves (log(inhibitor) vs. response with variable slope (four parameters)) using GraphPad Prism 9 software (GraphPad Software, San Diego, CA, USA).

In experiment [8] the test system is SOD2/MnSOD. In words: Western blot of SOD2/MnSOD levels in SW480 cells. As to conditions: SW480, 6.3 μM, 24 and 72 h, relative to control. As for the experimental part:
as §1

What is called IC50 is the concentration that inhibits the measured activity by half. Take `CC(=O)Oc1c(C(C)C)cc2c(c1OC(C)=O)[C@@]1(NC(=O)OCC(C)C)CCCC(C)(C)[C@@H]1CC2` [Compound 17, (4bR,8aS)-8,8-Dimethyl-4b-{[(2-methylpropoxy)carbonyl]amino}-2-(propan-2-yl)-4b,5,6,7,8,8a,9,10-octahydrophenanthrene-3,4-diyl diacetate]: the Rb protein level result in experiment [1] is recorded as “notable decrease”. Also, in experiment [2], the induction of apoptosis entry was “did not induce apoptosis”. Besides, the “cyclin A expression” value is given as “decrease” in experiment [3] (24 h) and “did not affect” in experiment [3] (48 h). The CDK6 protein level result is recorded as “significantly reduced” in experiment [4] (24 h) and “lower than those in the control group” in experiment [4] (48 h). In experiment [5] (HCT116 cells, ratio of IC50 values), the “fold more active than cisplatin” value is 1.2 fold. In addition, the half-maximal inhibitory concentration (IC50) in experiment [5] (Homo sapiens, HCT-116, 72 h, read-out: IC50 HCT116) was 17 ± 2 µM; in experiment [7] it was 6.7 ± 0.5 µM. The “percentage of SW480 cells in G0/G1 phase” value in experiment [6] (6.3 μM, 24 h (control 54%)) is 66%. Moreover, the “percentage of SW480 cells in S phase” value in experiment [6] (6.3 μM, 48 h (control 30%)) came out at 40%. The “effect on the cell cycle” value in experiment [6] (SW480, 6.3 μM, 72 h) is on record as “no impact”. The “expression of SOD2/MnSOD” value in experiment [8] was “significantly increased”.

The values are drawn from publication PMC12498136, “Synthesis and biological evaluation of novel carnosic acid derivatives with anticancer activity” (RSC Advances, 2025).
